Source: the CheMixHub ionic liquid set
± gives the uncertainty stated by the source.

Assay: xn = mol fraction of the nth substance listed

CCC[N+]1(C)CCCCC1.[Br-] + O + CCCC[N+]1(C)CCCCC1.[Br-]
101 kPa
Conditions	viscosity [mPa·s]
298.15 K, x1 = 0.00449, x3 = 0.004485	1.305 ± 0.016
298.15 K, x2 = 0.9578, x1 = 0.01421	2.565 ± 0.032
303.15 K, x1 = 0.00449, x3 = 0.004485	1.135 ± 0.014
303.15 K, x2 = 0.9577, x1 = 0.02117	2.165 ± 0.027
303.15 K, x2 = 0.9734, x1 = 0.00893	1.615 ± 0.02
308.15 K, x2 = 0.9733, x1 = 0.01334	1.355 ± 0.017

CCO + CCOP(=O)([O-])OCC.CC[N+]1(C)CCCC1
100 kPa, x2 = 0
Conditions	viscosity [mPa·s]
293.15 K	1.18 ± 0.07
298.15 K	1.11 ± 0.07
303.15 K	0.98 ± 0.06
308.15 K	0.89 ± 0.05
313.15 K	0.82 ± 0.05
318.15 K	0.75 ± 0.05
323.15 K	0.69 ± 0.04
328.15 K	0.65 ± 0.04
333.15 K	0.6 ± 0.04
338.15 K	0.56 ± 0.03

CCCCn1cc[n+](CCOCCOCCOCC[n+]2ccn(CCCC)c2)c1.N#C[N-]C#N.N#C[N-]C#N + CC[n+]1ccn(C)c1.N#C[N-]C#N + O=S(=O)([N-]S(=O)(=O)C(F)(F)F)C(F)(F)F.[Li+]
100 kPa, x1 = 0.2237, x2 = 0.6826
Conditions	electrical conductivity [S/m]
298 K	0.491 ± 0.02
303 K	0.589 ± 0.024
313 K	0.812 ± 0.032
323 K	1.1 ± 0.044
333 K	1.42 ± 0.057
343 K	1.79 ± 0.071

CCCC[N+](CCCC)(CCCC)CCCC.O=[N+]([O-])[O-] + CCCCCCCCCCCC[N+](C)(C)C.[Br-] + O
viscosity [mPa·s], 100 kPa
Conditions	x2 = 5.421e-05, x1 = 0.0001802	x2 = 0.0001084, x1 = 0.0001801	x2 = 0.0001626, x1 = 0.0001801	x2 = 0.0002168, x1 = 0.0001801	x2 = 0.000271, x1 = 0.0001801	x2 = 0.0003252, x1 = 0.0001801	x2 = 0.0003794, x1 = 0.0001801	x2 = 0.0004335, x1 = 0.0001801	x2 = 0.0004877, x1 = 0.0001801	x2 = 0.0005418, x1 = 0.0001801
293.15 K	1.042 ± 0.029	1.043 ± 0.029	1.045 ± 0.029	1.047 ± 0.029	1.048 ± 0.029	1.048 ± 0.029	1.049 ± 0.029	1.049 ± 0.029	1.049 ± 0.029	1.049 ± 0.029
298.15 K	0.924 ± 0.029	0.926 ± 0.029	0.927 ± 0.029	0.928 ± 0.029	0.928 ± 0.029	0.929 ± 0.029	0.929 ± 0.029	0.929 ± 0.029	0.93 ± 0.029	0.93 ± 0.029
303.15 K	0.821 ± 0.028	0.822 ± 0.028	0.822 ± 0.028	0.824 ± 0.028	0.825 ± 0.028	0.825 ± 0.028	0.825 ± 0.028	0.825 ± 0.028	0.826 ± 0.028	0.826 ± 0.028
308.15 K	0.731 ± 0.028	0.732 ± 0.028	0.735 ± 0.028	0.735 ± 0.028	0.735 ± 0.028	0.736 ± 0.028	0.736 ± 0.028	0.736 ± 0.028	0.737 ± 0.028	0.737 ± 0.028
313.15 K	0.664 ± 0.028	0.664 ± 0.027	0.665 ± 0.027	0.665 ± 0.027	0.665 ± 0.027	0.666 ± 0.027	0.666 ± 0.027	0.666 ± 0.027	0.666 ± 0.027	0.667 ± 0.028
318.15 K	0.617 ± 0.027	0.617 ± 0.027	0.617 ± 0.027	0.618 ± 0.027	0.618 ± 0.027	0.618 ± 0.027	0.618 ± 0.027	0.618 ± 0.027	0.619 ± 0.027	0.619 ± 0.027

CCCCCCC(O)CO (stereo not given) + CCCCCCCC[N+](CCCCCCCC)(CCCCCCCC)CCCCCCCC.[Br-] + [Cl-].[Cl-].[Co+2]
Conditions	viscosity [mPa·s]
296.1 K, 101.3 kPa, x2 = 0.4, x3 = 0.2	27000

CCCC[N+](CCCC)(CCCC)Cc1ccccc1.[Cl-] + O=C(O)[C@@H]1CCCN1 + O
electrical conductivity [S/m], 101 kPa
Conditions	298.15 K	303.15 K	308.15 K
x2 = 1.802e-05, x1 = 1.802e-05	0.0132 ± 0.0013	0.0149 ± 0.0015	0.0164 ± 0.0016
x2 = 1.804e-05, x1 = 5.406e-05	0.0279 ± 0.0028	0.0297 ± 0.003	0.0314 ± 0.0031
x2 = 1.805e-05, x1 = 9.009e-05	0.0321 ± 0.0032	0.0338 ± 0.0034	0.0353 ± 0.0035
x2 = 4.506e-05, x1 = 1.802e-05	0.0156 ± 0.0016	0.0164 ± 0.0016	0.0176 ± 0.0018
x2 = 4.509e-05, x1 = 5.405e-05	0.0298 ± 0.003	0.0313 ± 0.0031	0.0329 ± 0.0033
x2 = 4.511e-05, x1 = 9.009e-05	0.0339 ± 0.0034	0.0356 ± 0.0036	0.0372 ± 0.0037
x2 = 7.21e-05, x1 = 1.802e-05	0.0169 ± 0.0017	0.0183 ± 0.0018	0.0197 ± 0.002
x2 = 7.214e-05, x1 = 5.405e-05	0.0314 ± 0.0031	0.0327 ± 0.0033	0.0341 ± 0.0034
x2 = 7.218e-05, x1 = 9.009e-05	0.0353 ± 0.0035	0.0367 ± 0.0037	0.0387 ± 0.0039
x2 = 9.913e-05, x1 = 1.802e-05	0.0184 ± 0.0018	0.0206 ± 0.0021	0.0213 ± 0.0021
x2 = 9.919e-05, x1 = 5.405e-05	0.0329 ± 0.0033	0.0335 ± 0.0034	0.0354 ± 0.0035
x2 = 9.925e-05, x1 = 9.008e-05	0.0368 ± 0.0037	0.0383 ± 0.0038	0.0409 ± 0.0041
x2 = 0.0001262, x1 = 1.802e-05	0.0209 ± 0.0021	0.0219 ± 0.0022	0.0229 ± 0.0023
x2 = 0.0001262, x1 = 5.405e-05	0.0337 ± 0.0034	0.0349 ± 0.0035	0.0366 ± 0.0037
x2 = 0.0001263, x1 = 9.008e-05	0.0384 ± 0.0038	0.0398 ± 0.004	0.0423 ± 0.0042
x2 = 0.0001532, x1 = 1.802e-05	0.0223 ± 0.0022	0.0239 ± 0.0024	0.0251 ± 0.0025
x2 = 0.0001533, x1 = 5.405e-05	0.0345 ± 0.0035	0.0358 ± 0.0036	0.0381 ± 0.0038
x2 = 0.0001534, x1 = 9.008e-05	0.0395 ± 0.004	0.0416 ± 0.0042	0.0445 ± 0.0045

CCCCCC[N+]1(C)CCCC1.O=S(=O)([N-]S(=O)(=O)C(F)(F)F)C(F)(F)F + Cc1ccccc1
100 kPa
Conditions	viscosity [mPa·s]
293.15 K, x2 = 0.3938	37.27 ± 0.79
293.15 K, x2 = 0.7993	4.124 ± 0.088
303.15 K, x2 = 0.5961	11.17 ± 0.24
308.15 K, x2 = 0.29	30.33 ± 0.64
308.15 K, x2 = 0.7993	3.15 ± 0.067
313.15 K, x2 = 0	51 ± 1.1

CCC(=O)[O-].C[n+]1ccn(CCO)c1 + O
100 kPa
Conditions	viscosity [mPa·s]
298.15 K, x1 = 0.7595	94.2 ± 7.1
298.15 K, x1 = 0.8421	117 ± 9.1
308.15 K, x1 = 0.8991	75.9 ± 5.6
318.15 K, x1 = 0.8421	40.3 ± 2.4
323.15 K, x1 = 0.8083	31.9 ± 1.9
323.15 K, x1 = 0.8991	34.8 ± 2.3
328.15 K, x1 = 0.8083	27 ± 1.7
328.15 K, x1 = 0.9102	30.5 ± 1.8
333.15 K, x1 = 0.8991	23.6 ± 1.3

CC(=O)N(C)C + CCCC[n+]1ccn(C)c1.F[B-](F)(F)F
viscosity [mPa·s], 101 kPa
Conditions	293.15 K	298.15 K	303.15 K	308.15 K	313.15 K	318.15 K	323.15 K
x1 = 1	–	–	–	–	0.778 ± 0.011	–	–
x2 = 0	1.02 ± 0.15	0.94 ± 0.14	0.87 ± 0.13	0.82 ± 0.12	0.78 ± 0.12	0.74 ± 0.11	0.72 ± 0.11

CCO + CC[n+]1ccn(C)c1.COP(=O)([O-])OC
100 kPa, x2 = 0
Conditions	viscosity [mPa·s]
298.15 K	1.08 ± 0.01
328.15 K	0.646 ± 0.009

CCO + CCCC[n+]1ccn(C)c1.O=S(=O)([N-]S(=O)(=O)C(F)(F)F)C(F)(F)F
100 kPa, x2 = 0
Conditions	viscosity [mPa·s]
297.55 K	1.11 ± 0.06
297.85 K	1.1 ± 0.06
298.15 K	1.1 ± 0.06
301.48 K	1.04 ± 0.05
303.3 K	1.01 ± 0.05
309.67 K	0.91 ± 0.05
312.7 K	0.86 ± 0.05
313 K	0.86 ± 0.04
313.3 K	0.85 ± 0.05
313.61 K	0.85 ± 0.04
316.33 K	0.8 ± 0.04
319.36 K	0.76 ± 0.04
319.67 K	0.76 ± 0.04

CCCC[N+]1(C)CCCCC1.[Br-] + O + CC[N+]1(C)CCCCC1.[Br-]
101 kPa
Conditions	viscosity [mPa·s]
293.15 K, x2 = 0.9577, x3 = 0.02117	2.805 ± 0.034
293.15 K, x3 = 0.005974, x1 = 0.002995	1.365 ± 0.017
298.15 K, x2 = 0.9734, x3 = 0.00893	1.815 ± 0.023
308.15 K, x2 = 0.9578, x3 = 0.0142	1.845 ± 0.023

CC[S+](CC)CCOCC[S+](CC)CC.N#C[N-]C#N.N#C[N-]C#N + CC[n+]1ccn(C)c1.N#C[N-]C#N + O=S(=O)([N-]S(=O)(=O)C(F)(F)F)C(F)(F)F.[Li+]
100 kPa, x1 = 0.2884, x2 = 0.6258
Conditions	electrical conductivity [S/m]
298 K	0.519 ± 0.021
303 K	0.632 ± 0.025
313 K	0.863 ± 0.035
323 K	1.17 ± 0.047
333 K	1.54 ± 0.062
343 K	1.95 ± 0.078

CC(C)C[P+](C)(CC(C)C)CC(C)C.Cc1ccc(S(=O)(=O)[O-])cc1 + O=S1(=O)CCCC1
101.33 kPa, x1 = 0.5
Conditions	viscosity [mPa·s]
303.18 K	216 ± 52
313.18 K	122 ± 26
323.15 K	69 ± 14
333.13 K	44.4 ± 9
343.09 K	27.4 ± 5.5
353.11 K	18.5 ± 3.7

CCO + CCOP(=O)([O-])OCC.CC[N+]1(C)CCOCC1
100 kPa, x2 = 0
Conditions	viscosity [mPa·s]
293.15 K	1.18 ± 0.07
298.15 K	1.11 ± 0.07
303.15 K	0.98 ± 0.06
308.15 K	0.89 ± 0.05
313.15 K	0.82 ± 0.05
318.15 K	0.75 ± 0.05
323.15 K	0.69 ± 0.04
328.15 K	0.65 ± 0.04
333.15 K	0.6 ± 0.04
338.15 K	0.56 ± 0.03

Oc1cccc(O)c1O + CCC[N+](CCC)(CCC)CCC.[Br-]
101.3 kPa, x2 = 0.5
Conditions	electrical conductivity [S/m]	viscosity [mPa·s]
293.15 K	0.00158 ± 6.8e-05	36500 ± 4900
298.15 K	0.00309 ± 9.7e-05	–
303.15 K	0.00531 ± 0.00022	17000 ± 2000
308.15 K	0.0126 ± 0.00037	11500 ± 1300
313.15 K	0.0186 ± 0.00046	6800 ± 690
333.15 K	0.0967 ± 0.0022	850 ± 88

CCO + CC[n+]1ccn(CCOC)c1.O=S(=O)([N-]S(=O)(=O)C(F)(F)F)C(F)(F)F
100 kPa, x2 = 0
Conditions	viscosity [mPa·s]
288.15 K	1.334 ± 0.014
293.15 K	1.202 ± 0.012
298.15 K	1.111 ± 0.011
303.15 K	1.003 ± 0.01
308.15 K	0.907 ± 0.009
313.15 K	0.83 ± 0.008
318.15 K	0.76 ± 0.008

CCO + CCOC(C)(C)C + CCOS(=O)(=O)[O-].CC[n+]1ccn(C)c1
Conditions	viscosity [mPa·s]
298.15 K, 101 kPa, x1 = 1, x2 = 0	1.077 ± 0.026
